Reference: patent US10155948B2, “Pharmaceutical composition for preventing or treating diabetic complications and screening method for preventive or therapeutic agent for diabetic complications” (KANGWON NATIONAL UNIVERSITY UNIVERSITY-INDUSTRY COOPERATION …, priority 2016, dated 2018)

Legend:
TGase2 [1] = target: T1, TGase2 (Homo sapiens, UniProt P21980); assay: In-situ TGase activity by confocal microscopy in VEGF-treated HRECs; assay type: cell-based; set-up: endogenous in cells; host or cells: human retinal endothelial cells (HRECs); conditions: 10 ng/ml VEGF 2 hrs, 50 μM cystamine, 20 μM MDC, 5 μM BAPTA-AM, 1 mM NAC, 0.5 μM Trolox, p<0.001
T1 sequence (P21980 1-687): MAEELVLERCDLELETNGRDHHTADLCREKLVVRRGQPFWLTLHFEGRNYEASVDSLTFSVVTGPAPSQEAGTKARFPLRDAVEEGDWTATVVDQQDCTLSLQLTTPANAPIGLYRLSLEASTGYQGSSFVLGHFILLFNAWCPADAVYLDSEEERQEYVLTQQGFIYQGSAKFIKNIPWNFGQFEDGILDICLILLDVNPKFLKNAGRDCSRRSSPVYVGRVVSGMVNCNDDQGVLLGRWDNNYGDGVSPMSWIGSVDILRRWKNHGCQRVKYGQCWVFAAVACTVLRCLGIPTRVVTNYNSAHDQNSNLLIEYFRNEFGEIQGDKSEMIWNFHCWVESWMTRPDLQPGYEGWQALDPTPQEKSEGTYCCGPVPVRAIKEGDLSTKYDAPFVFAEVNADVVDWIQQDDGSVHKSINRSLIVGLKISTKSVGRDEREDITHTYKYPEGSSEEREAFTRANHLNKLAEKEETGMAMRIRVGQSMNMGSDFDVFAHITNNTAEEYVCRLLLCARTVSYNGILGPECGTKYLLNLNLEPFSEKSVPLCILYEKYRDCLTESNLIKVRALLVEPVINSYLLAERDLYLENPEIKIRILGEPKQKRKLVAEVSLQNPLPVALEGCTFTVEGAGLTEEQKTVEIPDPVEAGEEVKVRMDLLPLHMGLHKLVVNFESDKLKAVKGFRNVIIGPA
Protocol: HUVEC isolation was done by our own supply and Human retinal endothelial cells (HRECs) were purchased from the Applied Cell Biology Research Institute (Cell Systems, Kirkland, Wash.). Both respectively were grown on 2% gelatin-coated plates in a M199 medium supplemented with 20% fetal bovine serum (FBS), 3 ng/ml basic fibroblastic growth factor, 5 units/ml heparin, 100 units/ml penicillin, and 100 μg/ml streptomycin. For experiments, cells were incubated for 6 hrs in a low-serum medium supplemented with 1% FBS and antibiotics.
In-situ Tgase transamidating activity was determined via confocal microscopic assay according to a previously known procedure. In brief, cells were incubated with 1 mM 5-(biotinamido)pentylamine (BAPA) for 1 hr at 37° C., fixed with 3.7% formaldehyde in PBS for 30 min, and permeabilized with 0.2% Triton X-100 in PBS for 30 min. After incubation with a blocking solution of 2% BSA in 20 mM Tris (pH 7.6), 138 mM NaCl, and 0.1% Tween 20 for 30 min, cells were treated with Cy3-conjugated streptavidin (1:200, v/v) in the blocking solution for 1 hr. Single-cell fluorescence intensities of stained cells were determined using confocal microscopy for 10 randomly selected cells per test. TGase activities were determined by comparing average fluorescence intensities of treated cells with those of control cells (expressed as multiples thereof).
HRECs were transfected with human TGase2-specific siRNA as described previously. In brief, cells were transfected with various concentrations of human TGase2-siRNA or 100 nM control siRNA (Dharmacon, Lafayette, Colo.) using siLentFect lipid reagent (Bio-Rad Laboratories, Hercules, Calif.) according to the manufacturer's instructions. Six hours after transfection with the indicated concentrations, the medium was replaced with a fresh culture medium and the transfected cells were further incubated for 24 hrs.
A detailed description of FIGS. 1A-1F are given below. […] (A, B) HRECs were incubated with 10 ng/ml VEGF for the indicated times (A) or for 2 hrs (B) in the presence of TGase inhibitors (50 μM cystamine and 20 μM MDC), 5 μM Ca^2+ chelator BAPTA-AM, or ROS scavengers (1 mM NAC or 0.5 μM Trolox). In-situ TGase activity was determined by confocal microscopy as described in Research Design and Methods (A: Time course changes in VEGF-induced transglutaminase activation; and B: Effects of various inhibitors on VEGF-induced transglutaminase activation). (C,D) HRECs were transfected with the indicated concentrations (C) or 100 nM (D) of human TGase2-specific siRNA (TGase2 siRNA) or 100 nM control (Ctrl) siRNA. Endothelial cells were treated with 10 ng/ml VEGF and subjected to confocal microscopic determination of in-situ TGase activity (C: Dose-dependent inhibition of TGase2 expression by TGase2 siRNA, TGase2 expression being analyzed by Western blot; and D: TGase2 siRNA prevention of VEGF-induced transglutaminase activation). FIGS. 1E and 1F show the effects of various inhibitors on the elevation of intracellular Ca^2+ (E) and ROS (F). Intracellular Ca^2+ and ROS levels were determined by confocal microscopy as described in Research Design and Methods. Results are expressed as mean±SD from three independent trials (***p<0.001).

TGase2 [2] = target: T1, TGase2; conditions: protein chip-based, dose-dependent
HUVECs = assay: VEGF-induced ROS generation in HUVECs; assay type: cell-based, human
Protocol: Intracellular ROS generation was determined using 2′,7′-dichlorodihydrofluorescein diacetate (H2DCFDA, Molecular Probes, Eugene, Oreg.) staining as previously described. Cells were pretreated with inhibitors for 30 min and co-incubated with 10 ng/ml of VEGF and 10 μM H2DCFDA in low-serum media (phenol red-free) for 10 min. Labeled cells were immediately analyzed using confocal microscopy (Fluoview-300, Olympus). Single-cell fluorescence intensities were determined for 10 randomly selected cells per test. Intracellular ROS levels were determined by comparing average fluorescence intensities of treated cells with those of control cells (expressed as multiples thereof).

TGase = target: T2, TGase (Homo sapiens, UniProt P21980); assay: VEGF-induced TGase activation in HUVECs; assay type: cell-based
T2 construct: endogenous in cells; host or cells: HUVECs (isolated in house)
T2 sequence (P21980 1-687): T1 sequence (P21980 1-687)

Compound	VEGF-induced TGase activation (in-situ TGase activity) (TGase2 [1])	TGase2 activity (TGase2 [2])	VEGF-enhanced TGase activation (TGase)	VEGF-enhanced ROS generation (HUVECs)
NCCSSCCN [cystamine]	prevented	–	–	–
Cc1c(C)c2c(c(C)c1O)CCC(C)(C(=O)O)O2 (stereo not drawn) [Trolox]	inhibited	–	–	–
CN(C)c1cccc2c(S(=O)(=O)NCCCCCN)cccc12 [MDC, monodansylcadaverine]	prevented	–	–	–

Continued, in another order:

VEGF-induced TGase activation (in-situ TGase activity) (TGase2 [1])	TGase2 activity (TGase2 [2])	VEGF-enhanced TGase activation (TGase)	Compound	VEGF-enhanced ROS generation (HUVECs)
–	inhibited	inhibited	NCCS [cysteamine]	inhibited
–	inhibited	inhibited	NCCc1ccc(O)c(O)c1 [dopamine]	inhibited
